Test results taken from PMC4052943 (BioMed Research International, 2014).
Where two headings read alike, the source gives them in different places.

Columns and labels:
[1] = tested on: Salmonella typhimurium TA98; details: 250 µM;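 also: test compound and mutagen preincubated 30 min at 37°C before adding bacteria, then His+ revertant colonies counted after 48 h plating, inhibition relative to mutagen-only versus negative-control revertants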
Method: (§1) In the preincubation experiment, test compounds and mutagen, each having a volume of 0.1 mL of varying concentrations, were preincubated at 37°C for 30 min and then 0.1 mL of 1 × 10^7 CFU/mL density of the bacterial culture was added, followed by the addition of 2.5 mL of top agar at 45°C (containing 0.5% NaCl and 0.6% agar) supplemented with 0.5 mM histidine-biotin. […] The combined solutions were vortexed and poured onto minimal glucose plates (40% glucose solution and Vogel Bonner medium). The plates were incubated at 37°C for 48 h and the numbers of histidine-independent revertants colonies were scored.
(§2) Survival of the bacteria was routinely monitored for each experiment. Parallel controls were run with compounds alone at all concentrations to test the possible toxicity. The concentrations of the test samples for investigating the antimutagenicity were 50, 100, 200, and 500 μM. […] All the test samples and mutagens were dissolved in DMSO (final conc., 0.01%). […] Plates were set up in triplicate for each concentration and the entire experiment was repeated three times. Inhibition of mutagenicity was expressed as percentage decrease of reverse mutation and calculated as (1) Percent inhibition=[(a−b)/(a−c)]×100, where a = number of histidine revertants induced by mutagen, b = number of histidine revertants induced by mutagen in the presence of test compound, and c = number of revertants induced in negative control.

[2] = tested on: Salmonella typhimurium strains TA97a, TA98, TA100, and TA102
Method: as §1, §2

[3] = tested on: Salmonella typhimurium TA98; experiment: Ames antimutagenicity assay (preincubation); details: for inhibition at 50 µM / inhibition at 100 µM / inhibition at 250 µM / inhibition at 500 µM: Salmonella enterica, TYPHIMURIUM;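 as to all read-outs here: test compound and mutagen preincubated 30 min at 37°C before adding bacteria, then His+ revertant colonies counted after 48 h plating, inhibition relative to mutagen-only versus negative-control revertants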
Method: as §1, §2

[4] = tested on: Salmonella typhimurium TA97a; experiment: Ames antimutagenicity assay (preincubation); details: for inhibition at 50 µM / inhibition at 100 µM / inhibition at 250 µM / inhibition at 500 µM: Salmonella enterica, TYPHIMURIUM; for Number of His+ revertants colonies/plate: TA 97a;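 as to all read-outs here: compound and mutagen preincubated together 30 min at 37 °C before adding bacteria, then plated on minimal glucose agar for 48 h and His+ revertant colonies counted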
Method: as §1, §2

[5] = tested on: Salmonella typhimurium TA102; details: 250 µM;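 also: compound and mutagen preincubated 30 min at 37 °C before adding bacteria, His+ revertant colonies counted after 48 h at 37 °C, inhibition relative to mutagen-alone minus negative-control revertants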
Method: as §1, §2

[6] = tested on: Salmonella typhimurium TA97a; details: 250 µM;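 also: compound and mutagen preincubated together 30 min at 37 °C before adding bacteria, then plated on minimal glucose agar for 48 h and His+ revertant colonies counted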
Method: as §1, §2

[7] = tested on: Salmonella typhimurium strains TA97a, TA98, TA100, and TA102; experiment: Ames test, statements over all tester strains; details: 50–500 μM
Method: as §1, §2

[8] = tested on: Salmonella typhimurium TA100; details: 250 µM;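 also: compound and mutagen preincubated together 30 min at 37°C before bacteria added, then plates incubated 48 h at 37°C, inhibition relative to mutagen-alone revertants after subtracting the negative control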
Method: as §1, §2

For O=c1oc2c(O)c(O)cc3c(=O)oc4c(O)c(O)cc1c4c23 [Ellagic acid, ellagic acid], the inhibition [1] was 56.3%, the mutagenic activity [2] was “No mutagenic activity” and the inhibition at 50 µM ([3]; read-out: % inhibition of mutagenicity, TA 98, 50 μM + 2AF, S9) was 19.4%. For the same compound, the inhibition at 50 µM ([3]; read-out: % inhibition of mutagenicity, TA 98, 50 μM + BP, S9) was 22.2%, the inhibition at 50 µM ([3]; read-out: % inhibition of mutagenicity, TA 98, 50 μM + MMS, no S9) was 22.2% and the inhibition at 100 µM ([3]; read-out: % inhibition of mutagenicity, TA 98, 100 μM + 2AF, S9) was 39.6%. It also gave an inhibition at 100 µM ([3]; read-out: % inhibition of mutagenicity, TA 98, 100 μM + BP, S9) of 48.2%, an inhibition at 100 µM ([3]; read-out: % inhibition of mutagenicity, TA 98, 100 μM + MMS, no S9) of 34% and an inhibition at 100 µM ([3]; read-out: % inhibition of mutagenicity, TA 98, 100 μM + NaN3, no S9) of 27.9%. The inhibition at 250 µM ([3]; read-out: % inhibition of mutagenicity, TA 98, 250 μM + BP, S9) was 62.3%, the inhibition at 250 µM ([3]; read-out: % inhibition of mutagenicity, TA 98, 250 μM + MMS, no S9) was 50% and the inhibition at 250 µM ([3]; read-out: % inhibition of mutagenicity, TA 98, 250 μM + NaN3, no S9) was 50%. The inhibition at 500 µM ([3]; read-out: % inhibition of mutagenicity, TA 98, 500 μM + 2AF, S9) was 80%, the inhibition at 500 µM ([3]; read-out: % inhibition of mutagenicity, TA 98, 500 μM + BP, S9) was 78.6% and the inhibition at 500 µM ([3]; read-out: % inhibition of mutagenicity, TA 98, 500 μM + MMS, no S9) was 69%. For the same compound, the inhibition at 500 µM ([3]; read-out: % inhibition of mutagenicity, TA 98, 500 μM + NaN3, no S9) was 64.2%, the “Number of His+ revertants colonies/plate” value ([3]; TA 98, 50 μM + 2AF, S9) was 214.3 ± 13.9 colonies/plate and the “Number of His+ revertants colonies/plate” value ([3]; TA 98, 50 μM + BP, S9) was 140.0 ± 12.2 colonies/plate. The “Number of His+ revertants colonies/plate” value ([3]; TA 98, 50 μM + MMS, no S9) was 53.0 ± 1.2 colonies/plate, the “Number of His+ revertants colonies/plate” value ([3]; TA 98, 100 μM + 2AF, S9) was 171.0 ± 9.5 colonies/plate and the “Number of His+ revertants colonies/plate” value ([3]; TA 98, 100 μM + BP, S9) was 107.3 ± 7.9 colonies/plate. For the same compound, the “Number of His+ revertants colonies/plate” value ([3]; TA 98, 100 μM + MMS, no S9) was 48.3 ± 2.0 colonies/plate, the “Number of His+ revertants colonies/plate” value ([3]; TA 98, 100 μM + NaN3, no S9) was 48.3 ± 2.7 colonies/plate and the “Number of His+ revertants colonies/plate” value ([3]; TA 98, 250 μM + BP, S9) was 86.3 ± 5.8 colonies/plate. The “Number of His+ revertants colonies/plate” value ([3]; TA 98, 250 μM + MMS, no S9) was 44.0 ± 2.1 colonies/plate, the “Number of His+ revertants colonies/plate” value ([3]; TA 98, 250 μM + NaN3, no S9) was 43.3 ± 2.6 colonies/plate and the “Number of His+ revertants colonies/plate” value ([3]; TA 98, 500 μM + 2AF, S9) was 76.3 ± 6.1 colonies/plate. The “Number of His+ revertants colonies/plate” value ([3]; TA 98, 500 μM + BP, S9) was 60.7 ± 10.5 colonies/plate, the “Number of His+ revertants colonies/plate” value ([3]; TA 98, 500 μM + MMS, no S9) was 37.3 ± 2.6 colonies/plate and the “Number of His+ revertants colonies/plate” value ([3]; TA 98, 500 μM + NaN3, no S9) was 38.0 ± 1.7 colonies/plate. The inhibition at 50 µM ([4]; read-out: % inhibition of mutagenicity, TA 97a, 50 μM + 2AF, S9) was 12.5%, the inhibition at 50 µM ([4]; read-out: % inhibition of mutagenicity, TA 97a, 50 μM + BP, S9) was 14.1% and the inhibition at 50 µM ([4]; read-out: % inhibition of mutagenicity, TA 97a, 50 μM + MMS, no S9) was 9%. For the same compound, the inhibition at 50 µM ([4]; read-out: % inhibition of mutagenicity, TA 97a, 50 μM + NaN3, no S9) was 21.1%, the inhibition at 100 µM ([4]; read-out: % inhibition of mutagenicity, TA 97a, 100 μM + 2AF, S9) was 22.6% and the inhibition at 100 µM ([4]; read-out: % inhibition of mutagenicity, TA 97a, 100 μM + BP, S9) was 36%. The inhibition at 100 µM ([4]; read-out: % inhibition of mutagenicity, TA 97a, 100 μM + MMS, no S9) was 25%, the inhibition at 100 µM ([4]; read-out: % inhibition of mutagenicity, TA 97a, 100 μM + NaN3, no S9) was 39.4% and the inhibition at 250 µM ([4]; read-out: % inhibition of mutagenicity, TA 97a, 250 μM + BP, S9) was 71.8%. It also gave an inhibition at 250 µM ([4]; read-out: % inhibition of mutagenicity, TA 97a, 250 μM + MMS, no S9) of 42.2%, an inhibition at 250 µM ([4]; read-out: % inhibition of mutagenicity, TA 97a, 250 μM + NaN3, no S9) of 53.6% and an inhibition at 500 µM ([4]; read-out: % inhibition of mutagenicity, TA 97a, 500 μM + 2AF, S9) of 81.7%. The inhibition at 500 µM ([4]; read-out: % inhibition of mutagenicity, TA 97a, 500 μM + BP, S9) was 83.5%, the inhibition at 500 µM ([4]; read-out: % inhibition of mutagenicity, TA 97a, 500 μM + MMS, no S9) was 66.5% and the inhibition at 500 µM ([4]; read-out: % inhibition of mutagenicity, TA 97a, 500 μM + NaN3, no S9) was 72.1%. For the same compound, the “Number of His+ revertants colonies/plate” value ([4]; 50 μM + 2AF, S9) was 312.3 ± 20.5 colonies/plate, the “Number of His+ revertants colonies/plate” value ([4]; 50 μM + BP, S9) was 652.7 ± 35.3 colonies/plate and the “Number of His+ revertants colonies/plate” value ([4]; 50 μM + MMS, no S9) was 426.3 ± 11.6 colonies/plate. For the same compound, the “Number of His+ revertants colonies/plate” value ([4]; 50 μM + NaN3, no S9) was 242.0 ± 11.8 colonies/plate, the “Number of His+ revertants colonies/plate” value ([4]; 100 μM + 2AF, S9) was 296.7 ± 13.4 colonies/plate and the “Number of His+ revertants colonies/plate” value ([4]; 100 μM + BP, S9) was 529.0 ± 28.6 colonies/plate. The “Number of His+ revertants colonies/plate” value ([4]; 100 μM + MMS, no S9) was 378.0 ± 10.8 colonies/plate, the “Number of His+ revertants colonies/plate” value ([4]; 100 μM + NaN3, no S9) was 219.3 ± 7.1 colonies/plate and the “Number of His+ revertants colonies/plate” value ([4]; 250 μM + BP, S9) was 333.3 ± 22.2 colonies/plate. The “Number of His+ revertants colonies/plate” value ([4]; 250 μM + MMS, no S9) was 321.3 ± 10.8 colonies/plate, the “Number of His+ revertants colonies/plate” value ([4]; 250 μM + NaN3, no S9) was 196.7 ± 8.2 colonies/plate and the “Number of His+ revertants colonies/plate” value ([4]; 500 μM + 2AF, S9) was 212.0 ± 10.4 colonies/plate. For the same compound, the “Number of His+ revertants colonies/plate” value ([4]; 500 μM + BP, S9) was 275.3 ± 17.5 colonies/plate, the “Number of His+ revertants colonies/plate” value ([4]; 500 μM + MMS, no S9) was 239.7 ± 10.8 colonies/plate and the “Number of His+ revertants colonies/plate” value ([4]; 500 μM + NaN3, no S9) was 168.0 ± 7.0 colonies/plate. The inhibition [5] was 74.1%, the inhibition [6] was 44.9% and the “toxicity to Salmonella typhimurium strains” value ([7]; absence of S9) was “No toxicity”. The “maximum inhibition of mutagenicity” value ([7]; against sodium azide, MMS, BP, 2AF) was “up to 90%” and the inhibition [8] was 67.7%.
